According to paper doi:10.1101/2025.06.24.661388v1 (biorxiv, 2025):

Columns and labels:
[1] = target: T1, monoacylglycerol lipase (MAGL), mouse brain (Mus musculus, UniProt O35678); assay: displacement autoradiography on brain sections; conditions: unlabelled T-401 against […] [3H]T-401; hippocampus and cerebral cortex
T1 sequence (O35678 1-303): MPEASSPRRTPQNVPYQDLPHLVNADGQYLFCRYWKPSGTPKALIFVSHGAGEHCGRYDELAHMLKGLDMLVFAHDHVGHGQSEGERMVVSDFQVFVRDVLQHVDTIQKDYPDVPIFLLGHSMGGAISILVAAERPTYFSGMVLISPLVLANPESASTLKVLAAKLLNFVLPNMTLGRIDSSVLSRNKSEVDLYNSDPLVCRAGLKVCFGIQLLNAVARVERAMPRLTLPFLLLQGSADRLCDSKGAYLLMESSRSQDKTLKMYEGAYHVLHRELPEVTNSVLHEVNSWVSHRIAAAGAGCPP

[2] = target: T2, monoacylglycerol lipase (MAGL), human temporal cortex (Homo sapiens, UniProt Q99685); assay: saturation autoradiography on brain sections; conditions: labelled compound, [3H]T-401 […] min, room temperature
T2 sequence (Q99685 1-303): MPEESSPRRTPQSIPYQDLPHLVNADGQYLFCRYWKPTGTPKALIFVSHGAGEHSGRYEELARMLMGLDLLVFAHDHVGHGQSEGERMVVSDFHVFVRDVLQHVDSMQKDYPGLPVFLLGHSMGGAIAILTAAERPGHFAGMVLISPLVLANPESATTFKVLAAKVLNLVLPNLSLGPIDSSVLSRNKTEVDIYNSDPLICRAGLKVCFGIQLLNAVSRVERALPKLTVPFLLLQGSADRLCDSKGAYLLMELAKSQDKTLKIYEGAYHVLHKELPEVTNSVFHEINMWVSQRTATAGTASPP

[3] = target: T1, monoacylglycerol lipase (MAGL), mouse brain; assay: saturation autoradiography on brain sections; conditions: labelled compound; [3H]T-401 […]; […] min; cerebral cortex
[4] = target: T2, monoacylglycerol lipase (MAGL), human temporal cortex; assay: displacement autoradiography on brain sections; conditions: unlabelled T-401 against […] [3H]T-401, room temperature

IC50 [1]: 41 nM
Kd [2]: 4.7 ± 0.8 nM
Kd [3]: 5.8 nM
IC50 [4]: 32 nM
SMILES: Cc1ccnc(F)c1-c1cccc(N2C[C@H](N3CCN(C(=O)c4nccs4)CC3)CC2=O)c1 [T-401, (R)-1-(3-(2-fluoro-4-methylpyridin-3-yl)phenyl)-4-(4-(thiazole-2-carbonyl)piperazin-1-yl)pyrrolidine-2-one]
